# From patent US7405222B2, “Methods and compositions for treatment of erectile dysfunction” (Modular Properties, Ltd., priority 2002, dated 2008)
# Columns and labels:
# [1] = in vivo; cited from earlier work
# [2] = system: male erectile dysfunction; conditions: in vivo; cited from earlier work
# [3] = Description: Suitable pharmaceutical vehicles are well known to those skilled in the art and are described in several manuals, including Remington's Pharmaceutical Sciences, 15th edition. […] Similarly, formulations containing PGE1, papaverine, phentolamine and atropine, should be kept under refrigeration.
# [4] = system: male erectile dysfunction; conditions: monotherapy or combination as stated; cited from earlier work
# [5] = system: male erectile dysfunction; conditions: intranasal; cited from earlier work
compound,measurement,setting,value
"CCCCC[C@H](O)/C=C/[C@H]1[C@H](O)CC(=O)[C@@H]1CCCCCCC(=O)O [PGE1, Prostaglandin E1]",half life,[1],short half life compared with papaverine and phentolamine
same,subjects with significant pain,[2],up to 40%
same,stability in storage,[3],not stable in water at room temperature
"Cc1ccc(N(CC2=NCCN2)c2cccc(O)c2)cc1 [Phentolamine, phentolamine]",erectile response,[4],does not reliably produce an erection sufficient for intercourse
COc1ccc(Cc2nccc3cc(OC)c(OC)cc23)cc1OC [papaverine],erectile response,[4],unpredictable response
CCCc1nn(C)c2c(=O)[nH]c(-c3cc(S(=O)(=O)N4CCN(C)CC4)ccc3OCC)nc12 [sildenafil],time to response in producing an erection,[5],within five minutes
